According to patent publication US7105158B1, “Methods of administering microencapsulated materials for immune modulated diseases” (priority 1992, dated 2006):

Tests used:
[1] = tested on: B-16 cells (malignant melanoma); experiment: Malignant melanoma in mice: survival; format: in vivo
Protocol: In vivo studies were carried out to assess the effect of the above combination therapy, both in the solution form and in the microencapsulated form in the treatment of cancer, in order to examine any possible advantages of the microencapsulated form of the drugs. The cytokine levels (eg. TNFa and IL1β were also evaluated after treatment.
Male C57BL/6 mice weighing approximately 18-20 g were anesthetized with light ether vapor and were injected subcutaneously with B-16 cells (1×10^6 cells). Their weights, tumor size and survival rate (in days) were measured daily. The tumor size was followed by measuring the long axis of the tumor daily. The study began once the tumor size reached 0.5 cm in diameter. The animals were divided into control and treatment groups. The control groups received phosphate buffered saline, blank PLGA microspheres or blank albumin microspheres. The treated groups received the following dosing schedule: Methotrexate solution (2 mg/kg or 15 mg/kg) administered s.c. daily or every three days. The M-CSF solution (10 microgram/kg or 100 microgram/kg) administered i.p. daily. The MTX microspheres (2 mg/kg or 15 mg/kg) and/or the M-CSF microspheres (10 microgram/kg or 100 microgram/kg) administered s.c. and i.p. respectively, alone or in combination therapy.

OKT3 induced IL6 release = experiment: Inhibition of OKT3 induced cytokine release in blood: IL6; format: cell-based; conditions: human blood, OKT3 1 μg/mL, 37° C., 24 hr
From the text: (§1) OKT3 is a murine monoclonal antibody to the CD3 antigen of human T cells and is used to treat transplant rejection. The high incidence of adverse reactions associated with OKT3 is thought to be related to the induction of cytokines. The purpose of this study was to determine if microencapsulated (MC) neutralizing antibodies (NA) to human TNFa and IL1β which are readily phagocytized by macrophages can inhibit the release of TNFa, IL1β, and IL6 following OKT3 challenge in vitro.
(§2) Microcapsules were prepared using the method from Example 1 using an albumin matrix. Blood was collected from 10 healthy subjects and separated into aliquots for the following groups. • Grp 1) Blank MC • Grp 2) OKT3 1 μg/mL+Blank MC • Grp 3) TNFa NA 1 μg/mL+IL1β NA 2 μg/mL+OKT3 1 μg/mL. Aliquots were incubated at 37° C. for 24 hr. Blood was assayed for TNFa, […], and IL6 at 0, 2, 6, 24 hr by ELISA. C) Results

[2] = tested on: OKT3 induced TNFa release; experiment: Inhibition of OKT3 induced cytokine release in blood: TNFa; format: cell-based; conditions: human blood, OKT3 1 μg/mL, 37° C., 24 hr; Grp 2 OKT3+Blank MC, Grp 3 TNFa NA 1 μg/mL+IL1β NA 2 μg/mL+OKT3
From the text: as §1, §2

Molecule: CN(Cc1cnc2nc(N)nc(N)c2n1)c1ccc(C(=O)N[C@@H](CCC(=O)O)C(=O)O)cc1 [MTX solution, methotrexate]
- mean survival ([1]; 2 mg/kg s.c. every 3 days): 12.8 days
- mean survival time ([1]; 15 mg/kg s.c. every 3 days): 14.2 days

Molecule: OKT3: murine monoclonal antibody to the CD3 antigen of human T cells
- Peak IL6 (OKT3 induced IL6 release): 664 ± 60 pg/mL
- Peak TNFa [2]: 655 ± 71 pg/mL

B1: M-CSF solution: Macrophage colony stimulating factor in solution (protein, UniProt P09603 33-554, looked up)
Macrophage colony-stimulating …: EEVSEYCSHMIGSGHLQSLQRLIDSQMETSCQITFEFVDQEQLKDPVCYLKKAFLLVQDIMEDTMRFRDNTPNAIAIVQLQELSLRLKSCFTKDYEEHDKACVRTFYETPLQLLEKVKNVFNETKNLLDKDWNIFSKNCNNSFAECSSQDVVTKPDCNCLYPKAIPSSDPASVSPHQPLAPSMAPVAGLTWEDSEGTEGSSLLPGEQPLHTVDPGSAKQRPPRSTCQSFEPPETPVVKDSTIGGSPQPRPSVGAFNPGMEDILDSAMGTNWVPEEASGEASEIPVPQGTELSPSRPGGGSMQTEPARPSNFLSASSPLPASAKGQQPADVTGTALPRVGPVRPTGQDWNHTPQKTDHPSALLRDPPEPGSPRISSLRPQGLSNPSTLSAQPQLSRSHSSGSVLPLGELEGRRSTRDRRSPAEPEGGPASEGAARPLPRFNSVPLTDTGHERQSEGSFSPQLQESVFHLLVPSVILVLLAVGGLLFYRWRRRSHQEPQRADSPLEQPEGSPLTQDDRQVELPV
- mean survival time ([1]; 10 microgram/kg i.p. daily): 14,2 days
